≈ marks a conversion by molar mass, not a printed value. Entries after “also recorded” stand apart in the source; their conditions may differ. Where two headings read alike, the source gives them in different places. Bounds are passed on as bounds.

By EC50 is commonly meant the concentration at which the effect is half-maximal. What is called CC50 is the concentration that lowers cell viability or growth by half.

One data set has as its system cell growth. Kind of data set: Cytotoxicity (cell growth).
A further data set has as its system mitochondrial DNA. In words: mt DNA content (toxicity to mitochondria, slot blot rehybridization). In kind it is cell-based, human. From the text: Autoradiographfic results were anlayzed by densitometry. […] See, for example, Yao, et al., Antimic.
Data set [1] concerns EBV. Kind of data set: Anti-EBV slot blot assay of EBV DNA in H1 cells. In kind it is cell-based, Epstein-Barr virus. As to the method: A high yield of BBV producing cell line H1 derived from human P3HR1 cells was used in this study. Cells were cultured in RPMIf medium supplemented with 10% dialyzed fetal bovine serum and 100 μg/ml Kanamycin and were grown at 37° C. in a humidified incubator containing 5% CO2.
H1 cells were maintained in logarithmic phase of growth for two days prior to the initiation of treatment. The H1 cells were seeded in 24 well plates at the density of 2×10^5 cells per well in 2 ml of fresh medium with or without drug treatment and were incubated at 37° C. for 5 days. Following the period of drug treatment the cells were pelleted and used to determine the inhibitory effect of drug on EBV DNA by slot blot assay.
Autoradiographfic results were anlayzed by densitometry. […] See, for example, Yao, et al., Antimic. Agzents and Chemo., July, 1993, p.

The nature of data set [2]: Neutral red uptake cytotoxicity assay. Particulars: human, uninfected human foreskin fibroblast (HFF) cells. It counts as cell-based. As to the method: Two days prior to use, human foreskin fibroblast (HiFF) cells were plated into six well plates and incubated at 37° C. with 5% CO2 and 90% humidity. On the date of assay, the drug was made upon MEM with 2% FBS then serially diluted 1:5 in MEM using six concentrations of drug. The initial starting concentration was 100/μg/ml down to 0.03 μg/ml. The virus used for infection was diluted in MEM containing 10% FBS to a desired concentration which gave 20-30 plaques per well. The media was aspirated from the wells and 0.2 ml of virus was added to each well in triplicate with 0.2 ml of media being added to drug toxicity wells. The plates were then incubated for one hour with shaking every fifteen minutes. After incubation, MEM containing the various drug concentrations was added to appropriate wells in a volume of 2.0 ml. Additional media was added again on day five and the cultures incubated for a total of 10 days. At the end of the incubation, the liquid was then aspirated off, stained with 6% neutral red solution for six hours, washed and plaques enumerated using a stereomicroscope. […]

The subject of the next data set is Ellen strain of VZV. In words: Plaque reduction assay for Varicella-Zoster virus in HFF cells. In kind it is cell-based. As to conditions: 10 days. The method, then:
Two days prior to use, human foreskin fibroblast (HiFF) cells were plated into six well plates and incubated at 37° C. with 5% CO2 and 90% humidity. On the date of assay, the drug was made upon MEM with 2% FBS then serially diluted 1:5 in MEM using six concentrations of drug. The initial starting concentration was 100/μg/ml down to 0.03 μg/ml. The virus used for infection was diluted in MEM containing 10% FBS to a desired concentration which gave 20-30 plaques per well. The media was aspirated from the wells and 0.2 ml of virus was added to each well in triplicate with 0.2 ml of media being added to drug toxicity wells. The plates were then incubated for one hour with shaking every fifteen minutes. After incubation, MEM containing the various drug concentrations was added to appropriate wells in a volume of 2.0 ml. Additional media was added again on day five and the cultures incubated for a total of 10 days. At the end of the incubation, the liquid was then aspirated off, stained with 6% neutral red solution for six hours, washed and plaques enumerated using a stereomicroscope. The results are compared with untreated control wells, and EC50 and CC50 values calculated.
For orientation: Plaque reduction counts the foci of infection that form in a cell layer.

The subject of a further data set is HBV. In words: HBV assay. It counts as cell-based. An excerpt:
(§1) Plaque reduction assays used for HSV-1, HSV-2 and CMV have been previously described. See, Gao, et al., Antimic. Agents and Chemo., May, 1990, p. 808-812 (HSV-Plaque); Cheng, et al., Proc. Natl. Acad. Sci. USA, vol. 80, 2767-2770 (May 1983) (CMV plaque reduction assay). The methods for testing against EBV, HBV, and HIV were also used as described previously. See, Yao, et al., Antimic. Agents and Chemo., July, 1993, p.

The test system of data set [3] is EBV. As to conditions: reported in Chu et al. PCT application; cited from earlier work.
A further data set has as its system HSV-1. In words: Plaque reduction assay HSV-1. It counts as cell-based. Particulars: Human alphaherpesvirus 1; HSV-1, plaque reduction.
From the text: as §1

For data set [4], the system named is lactate accumulation in the medium. Kind of data set: Lactate accumulation in medium of drug treated cultures.
Another data set deals with CMV. Kind of data set: Plaque reduction assay CMV. It counts as cell-based. Particulars: Human betaherpesvirus 5.
From the text: as §1

The test system of another data set is HIV. In words: HIV assay. Particulars: Human immunodeficiency virus 1. In kind it is cell-based.
From the text: as §1

A further data set concerns HSV-2. Kind of data set: Plaque reduction assay HSV-2. Particulars: Human alphaherpesvirus 2; HSV-2, plaque reduction. In kind it is cell-based.
From the text: as §1

Data set [5] can be described thus: Stability at different pH's (HPLC). Particulars: for stability (in words): pH 2. The method, then: In order to explore the possibility of using L-I-OddU and L-Br-OddU orally for the treatment of EBV-associated diseases, its stability at different pH levels is important. L-I-OddU was exposed to different pH solutions as indicated for 3 hr at 37°. The percentage of compound remaining as L-I-OddU was examined using HPLC with a C18 column.

Data set [6] in a line: Pharmacokinetics in BDF1 mice. As to conditions: 50 mg/kg po versus ip/iv, preliminary.
Procedure: At the times indicated in FIG. 5, blood was drawn into a heparinized capillary from the retro orbital plexus of female BDF1 mice. The plasma was separated from the formed elements by centrifugation. Then 100 μl of plasma was mixed with an equal volume of 30% trichloracetic acid and kept on ice for 10 minutes. […] The aqueous phase was moved to a clean tube and extracted again with the trioctylamine:freon mixture. Then 50 μl of the neutralized aqueous phase was injected onto a Perkin Elmer HPLC system. The samples were eluted from an Altech C18 column with an isocratic solvent system of water at 2 ml per min. The concentrations of the unknown samples were determined by comparison with standards of known concentrations.
Setting [7] is: human gammaherpesvirus 4, 120 h, H1 cells, 5 days, EC50 of Table 2, read-out: Anti-EBV EC50.
The mark [8] stands for this setting: H1 cells, 5 days, EC50 of Table 2.
[9] abbreviates: read-out: Cytotoxicity IC50, cell growth.
[10] abbreviates: Human alphaherpesvirus 3, 240 h, read-out: EC50.
Where [11] appears, read: H1 cells, 5 days, EC50 of Table 2, read-out: Anti-EBV EC50.

In the data set with cell growth (human, H1 cells), `O=c1[nH]c(=O)n([C@@H]2CO[C@H](CO)O2)cc1F` [L-F-OddU, (2S,4S)-1-[2-(Hydroxymethyl)-1,3-dioxolan-4-yl]-5 fluorouracil] had an IC50 greater than 100 µM. The “mt DNA Content ID50” value with mitochondrial DNA is “Inactive”. For the same compound, in the data set on EBV [1] (setting [7]), the EC50 stood at 50 µM.
On the same counts, the results for `Nc1nc(O)c2ncn(COC(CO)CO)c2n1` [DHPG, gancyclovir, reference compound] are 75 µM, “Inactive” and 5 µM.
Take `O=c1[nH]c(=O)n(C2COC(CO)O2)cc1I` [D-I-OddU, reference compound]: in the data set with EBV [1] (setting [8]), the “Anti-EBV EC50” value is “Inactive”.
As to `Nc1ccn([C@H]2CC[C@@H](CO)O2)c(=O)n1` [ddC, reference compound], the IC50 amounted to 20 µM in the data set with cell growth (setting [9]) and 0.02 µM in the data set with mitochondrial DNA (read-out: mt DNA Content ID50). Also, the “Anti-EBV EC50” value in the data set on EBV [1] (setting [8]) was “Inactive”.
In the data set with cell growth (human, H1 cells), `O=c1[nH]c(=O)n([C@@H]2CO[C@H](CO)O2)cc1Cl` [L-CI-OddU, (2S,4S)-1-[2-(Hydroxymethyl)-1,3-dioxolan-4-yl]-5-chlorouracil] yielded an IC50 greater than 100 µM. For the same compound, the CC50 at 10 days in data set [2] is greater than 100 µg/mL. Besides, in the data set on mitochondrial DNA, the “mt DNA Content ID50” value was “Inactive”. The half-maximal effective concentration (EC50) in the data set with EBV [1] (setting [7]) amounted to 3 µM; with Ellen strain of VZV (setting [10]), 27.9 µg/mL (≈ 112 µM).
Turning to `O=c1ccn([C@@H]2CO[C@H](CO)O2)c(=O)[nH]1` [L-OddU, (2S,4S)-1-[2-(Hydroxymethyl)-1,3-dioxolan-4-yl]uracil], the IC50 in the data set on cell growth (human, H1 cells) is greater than 100 µM. Moreover, in the data set on mitochondrial DNA, the “mt DNA Content ID50” value is “Inactive”. Further, in the data set with EBV [1] (setting [7]), the EC50 is greater than 50 µM.
`O=c1[nH]c(=O)n([C@@H]2CO[C@H](CO)O2)cc1C(F)(F)F` [L-CF3-OddU, (2S,4S)-1-[2-(Etydroxymethyl)-1,3-dioxolan-4-yl]-5-trifluoromethyluracil]: the IC50 with cell growth (setting [9]) was greater than 100 µM. Further, the “mt DNA Content ID50” value with mitochondrial DNA was “Inactive”. Also, the EC50 in the data set on EBV [1] (setting [11]) came out at 3 µM.
Regarding `O=c1[nH]c(=O)n(C2COC(CO)O2)cc1Br` [D-Br-OddU, reference compound], the “Anti-EBV EC50” value in the data set with EBV [1] (setting [8]) is reported as “Inactive”.
In [2], `Nc1nc2c(ncn2COCCO)c(=O)[nH]1` [ACV (acycloguanine), acyclovir, reference compound] yielded a CC50 at 10 days greater than 100 µg/mL. Besides, the EC50 with Ellen strain of VZV (setting [10]) was found to be 0.6 µg/mL (≈ 2.66 µM).
As for `Cc1cn([C@H]2O[C@@H](CO)[C@H](O)[C@H]2F)c(=O)[nH]c1=O` [L-FMAU, 2′-fluoro-5-methyl-β-L-arabinofuranosyluridine, reference compound], the “activity against HBV (in words)” value in the data set on HBV is “active”. In the data set with EBV [3], the “activity against EBV (PCT/US95/01253)” value is listed as “good activity”. The “anti-EBV activity (in words)” value with EBV [1] is given as “active”.
`O=c1[nH]c(=O)n([C@@H]2CO[C@H](CO)O2)cc1I` [L-I-OddU, (2S,4S)-1-[2-(Hydroxymethyl)-1,3-dioxolan-4-yl]-5-iodouracil]: the EC50 was 50 µM in the data set on HSV-1; greater than 10 µM in the data set on HBV (Hepatitis B virus, HBV); greater than 10 µM with CMV; greater than 100 µM with HIV; greater than 50 µM with HSV-2; 0.1 µM in the data set with EBV [1] (setting [7]). Further, the concentration giving a half-maximal response (EC50) stood at 0.4 µM in the data set on EBV [1] (human gammaherpesvirus 4, 120 h, H1 cells, 5 days, second EC50 column of Table 2, read-out: Anti-EBV EC50); 0.1 µM in the data set with EBV [1] (human gammaherpesvirus 4, EBV, Table 3, read-out: EC50); 4.2 µg/mL (≈ 12.4 µM) in the data set with Ellen strain of VZV (setting [10]). This compound also returned an IC50 with cell growth (human, H1 cells) greater than 100 µM. Further, in data set [2], the CC50 at 10 days is greater than 100 µg/mL. In addition, the “activity against HBV (in words)” value with HBV is “little activity”. Moreover, in data set [4], the “induction of lactate accumulation in the medium” value is reported as “lack of induction”. Also, the “% Remaining” value came out at 102% in data set [5] (pH1, 3 hr at 37°); 102% in [5] (pH2, 3 hr at 37°); 102% in data set [5] (pH5, 3 hr at 37°); 99% in data set [5] (pH7, 3 hr at 37°); 100% in [5] (pH9, 3 hr at 37°). Further, in [5], the “stability (in words)” value is “stable”. The “mt DNA Content ID50” value in the data set with mitochondrial DNA is on record as “Inactive”. The “anti-EBV activity (in words)” value in the data set on EBV [1] is “most potent; also recorded: slightly more potent than L-Br-OddU”. For the same compound, the “EC50 against EBV relative to L-FMAU” value in the data set with EBV [1] (comparison with L-FMAU) is “at least four times lower than L-FMAU”.
For `O=c1[nH]c(=O)n([C@@H]2CO[C@H](CO)O2)cc1Br` [L-Br-OddU], the IC50 in the data set with cell growth (setting [9]) is greater than 100 µM. Moreover, in data set [4], the “induction of lactate accumulation in the medium” value is “lack of induction”. The “% Remaining” value in data set [5] (pH1, 3 hr at 37°) is listed as 105%. The “stability (in words)” value in [5] was “stable”. Besides, the “efficiency of oral uptake” value in [6] is on record as “about 60%”. The “mt DNA Content ID50” value in the data set on mitochondrial DNA is “Inactive”. Also, the “anti-EBV activity (in words)” value in the data set with EBV [1] is listed as “most potent”. Moreover, the EC50 with EBV [1] (setting [11]) was 0.2 µM; in the data set with EBV [1] (H1 cells, 5 days, second EC50 column of Table 2, read-out: Anti-EBV EC50), 2 µM; in the data set on Ellen strain of VZV, 0.8 µg/mL (≈ 2.73 µM).

The record behind these values is US20010018440A1, “L-beta-dioxolane uridine analogs and methods for treating and preventing virus infections” (Yale University and The University of Georgia Research …, priority 1996, published 2001).
